# In patent US7902226B2, “Dehalogeno-compounds” (Daiichi Pharmaceutical Co., Ltd., priority 2000, dated 2011):
# What was measured:
# E. coli, NIHJ = test: Antibacterial activity (MIC), standard method of the Japan Society of Chemotherapy; type: cell-based; conditions: Escherichia coli
# Protocol: (§1) Antibacterial activities of the compounds of this invention were measured in accordance to the standard method designated by the Japan Society of Chemotherapy, with the results shown as MIC values (microgram/ml) units in the following table. For comparison with the MIC values of the compounds of this invention, MIC values of levofloxacin (LVFX), ciprofloxacin (CPFX) and 7-[3-(R)-(1-aminocyclopropyl)pyrrolidin-1-yl]-6-fluoro-1-[2-(S)-fluoro-1-(R)-cyclopropyl]-8-methyl-1,4-dihydro-4-oxoquinoline-3-carboxylic acid (Reference drug 1), which is described in PCT/JP96/00208, are also shown in the table.
# K. pneumoniae, Type 1 = test: as above; type: cell-based; conditions: Klebsiella pneumoniae, TYPE1
# Protocol: as §1
# Pr. vulgalis, 08601 = test: as above; type: cell-based
# Protocol: as §1
# Ps. aeruginosa, 32104 = test: as above; type: cell-based; conditions: Pseudomonas aeruginosa
# Protocol: as §1
# Ps. aeruginosa, 32121 = test: as above; type: cell-based; conditions: Pseudomonas aeruginosa
# Protocol: as §1
# [1] = tested on: Ps. maltophilia, IID-1275; test: as above; type: cell-based; conditions: Stenotrophomonas maltophilia, IID1275
# Protocol: as §1
# S. aureus, 209P = test: as above; type: cell-based; conditions: Staphylococcus aureus
# Protocol: as §1
# S. aureus, 870307 = test: as above; type: cell-based; conditions: Staphylococcus aureus
# Protocol: as §1
# S. epidermidis, 56500 = test: as above; type: cell-based; conditions: Staphylococcus epidermidis
# Protocol: as §1
# S. flexneri, 2A 5503 = test: as above; type: cell-based; conditions: Shigella flexneri, 2A5503
# Protocol: as §1
# Ser. marcescens, 10100 = test: as above; type: cell-based; conditions: Serratia marcescens
# Protocol: as §1
# [2] = tested on: Str. faecalis, ATCC 19433; test: as above; type: cell-based; conditions: Enterococcus faecalis, ATCC19433
# Protocol: as §1
# Str. pneumoniae J24 = test: as above; type: cell-based; conditions: Streptococcus pneumoniae
# Protocol: as §1
# Str. pyogenes, G-36 = test: as above; type: cell-based; conditions: Streptococcus pyogenes, G36
# Protocol: as §1
SMILES,"MIC (E. coli, NIHJ) [µg/mL]","MIC (K. pneumoniae, Type 1) [µg/mL]","MIC (Pr. vulgalis, 08601) [µg/mL]","MIC (Ps. aeruginosa, 32104) [µg/mL]","MIC (Ps. aeruginosa, 32121) [µg/mL]",MIC [1] [µg/mL],"MIC (S. aureus, 209P) [µg/mL]","MIC (S. aureus, 870307) [µg/mL]","MIC (S. epidermidis, 56500) [µg/mL]","MIC (S. flexneri, 2A 5503) [µg/mL]","MIC (Ser. marcescens, 10100) [µg/mL]",MIC [2] [µg/mL],MIC (Str. pneumoniae J24) [µg/mL],"MIC (Str. pyogenes, G-36) [µg/mL]",melting point [°C]
"CNC1([C@@H]2CCN(c3ccc4c(=O)c(C(=O)O)cn(C5CC5)c4c3C)C2)CC1 [Example 15, 1-(cyclopropyl)-8-methyl-7-[3-(R)-[1-(methylamino)cyclopropyl]pyrrolidin-1-yl]-1,4-dihydro-4-oxoquinoline-3-carboxylic acid]",≤ 0.003,0.025,0.012,0.1,0.05,0.2,≤ 0.003,0.025,0.006,0.006,0.1,0.025,≤ 0.003,≤ 0.003,190 to 192
"Cc1c(N2CC[C@@H](C3(N)CC3)C2)ccc2c(=O)c(C(=O)O)cn(C3CC3)c12 [Example 3, 7-[3-(R)-(1-aminocyclopropyl)pyrrolidin-1-yl]-1-cyclopropyl-1,4-dihydro-8-methyl-4-oxoquinoline-3-carboxylic acid]",≤ 0.003,0.012,≤ 0.003,0.05,0.025,0.05,≤ 0.003,0.025,0.003,≤ 0.003,0.025,0.012,≤ 0.003,0.003,230 to 233
